Assay results published in paper PMC7756392, “Syntheses of Thailandepsin B Pseudo‐Natural Products: Access to New Highly Potent HDAC Inhibitors via Late‐Stage Modification” (Chemistry (Weinheim an Der Bergstrasse, Germany), 2020).

How the values were obtained:
human recombinant HDAC1 = target: T1, human recombinant HDAC1 (Homo sapiens, UniProt Q13547); experiment: ZMAL trypsin assay, HDAC1; format: biochemical; settings: ZMAL trypsin assay
T1 construct: purchased BPS Bioscience 50051
Experimental: (§1) [28] Assays for HDAC1/6 were prepared according to: B. Heltweg , J. Trapp , M. Jung , Methods 2005, 36, 332–337; assays for HDAC8 were prepared according to: J. Senger , J. Melesina , M. Marek , C. Romier , I. Oehme , O. Witt , W. Sippl , M. Jung , J. Med. Chem. 2016, 59, 1545–1555. […]
hHDAC1/6: Activity assays were performed in OptiPlateTM-96 F black microplates (PerkinElmer). Commercial available enzymes (human recombinant HDAC1; BPS Bioscience, catalog no. 50051 and human recombinant HDAC6; BPS Bioscience, catalog no. 50006) were used. Total assay volume of 60 µL contains 42 µl of assay buffer (50 mM Tris -HCl, pH 8.0, 137 mM NaCl, 2.7 mM KCl, 1 mM MgCl2, 0.2 mM TCEP and 1 mg/mL bovine serum albumin), 10 µL of enzyme solution in assay buffer, 3 µL of increasing concentrations of inhibitors in DMSO and 5 μL of the fluorogenic substrate ZMAL (Z -(Ac)Lys-AMC) (126 μM). After incubation (90 min, 37 °C) 60 µL of stop solution, containing 5 μL Trichostatin A (TSA) (33 μM) and 10 μL trypsin (6 mg/mL) in trypsin buffer (Tris-HCl 50 mM, pH 8.0, NaCl 100 mM), were added. […]

hHDAC8 = target: T2, hHDAC8 (Homo sapiens, UniProt Q9BY41); experiment: ZMTFAL trypsin assay, HDAC8; format: biochemical
T2 sequence (Q9BY41 1-377): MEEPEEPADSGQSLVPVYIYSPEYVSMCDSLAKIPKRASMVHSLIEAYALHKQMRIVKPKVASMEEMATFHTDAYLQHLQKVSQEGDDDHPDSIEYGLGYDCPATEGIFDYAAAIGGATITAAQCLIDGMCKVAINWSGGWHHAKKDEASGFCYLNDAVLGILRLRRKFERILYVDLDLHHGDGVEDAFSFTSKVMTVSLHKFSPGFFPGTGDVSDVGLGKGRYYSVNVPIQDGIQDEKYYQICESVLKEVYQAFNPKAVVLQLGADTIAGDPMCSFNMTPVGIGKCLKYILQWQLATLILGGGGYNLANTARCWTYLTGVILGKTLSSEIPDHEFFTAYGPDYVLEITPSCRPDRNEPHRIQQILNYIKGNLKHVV
Experimental: as §1
After […]
incubation (30 min at 37 °C) fluorescence signal (λex = 390 nm, λem = 460 nm) was measured on a BMG LABTECH POLARstar OPTIMA plate reader (BMG Labtechnologies, Germany).10 hHDAC8: Enzyme was obtained from cooperation partners (Romier).11 Assay was performed as described before. 22.5 µL of enzyme solution in assay buffer (15 mM Tris, pH 7.5, 50 mM KH2PO4, 10 mM KCl, 3 mM MgSO4·7H2O and 0.2 mM TCEP), increasing inhibitor concentrations in DMSO (2.5 μL) and 5 µL of ZMTFAL substrate solution ([…]) were incubated for 90 min at 37 °C in ½ AreaPlate-96 F microplates (PerkinElmer). 30 µL of stop solution (see HDAC1/6) were added. After incubation (30 min at 37 °C) fluorescence signal was […]

HDAC in HeLa cells = experiment: Cellular HDAC activity assay, HeLa; format: cell-based; settings: for IC50: read-out: cellular HDAC inhibition IC50
Experimental: Cellular trypsin-based activity assay:13 1 x 10^4 Hela cells (50 µL) were seeded in sterile dark 96-well microtiter plates (Perkin Elmer) and incubated overnight at 37 °C and 5% CO2 atmosphere. The next day, the medium was aspirated and the cells were incubated with different inhibitor concentrations or DMSO, diluted in 50 µL m edium without supplements and phenol red. After 2 h incubation time, 50 µL of the HDAC substrate MAL (Boc -Lys(Ac)-AMC) were added to a final concentration of 150 µM and the plate was incubated for 2 h at 37°C and 5%
CO2. The reaction was stopped by adding 50 µL of stop solution (50 mM Tris, 137 mM NaCl, 1 mM MgCl2, 2.7 mM KCl, 1 µM TSA, 0.1% Igepal, 1 mg/ml Trypsin). After another 20 min of incubation, the fluorescence signal (λex = 390 nm, λem = 460 nm) was measured on a BMG LABTECH POLARstar OPTIMA plate reader (BMG Labtechnologies, Germany). […]

T1 sequence (Q13547 whole entry): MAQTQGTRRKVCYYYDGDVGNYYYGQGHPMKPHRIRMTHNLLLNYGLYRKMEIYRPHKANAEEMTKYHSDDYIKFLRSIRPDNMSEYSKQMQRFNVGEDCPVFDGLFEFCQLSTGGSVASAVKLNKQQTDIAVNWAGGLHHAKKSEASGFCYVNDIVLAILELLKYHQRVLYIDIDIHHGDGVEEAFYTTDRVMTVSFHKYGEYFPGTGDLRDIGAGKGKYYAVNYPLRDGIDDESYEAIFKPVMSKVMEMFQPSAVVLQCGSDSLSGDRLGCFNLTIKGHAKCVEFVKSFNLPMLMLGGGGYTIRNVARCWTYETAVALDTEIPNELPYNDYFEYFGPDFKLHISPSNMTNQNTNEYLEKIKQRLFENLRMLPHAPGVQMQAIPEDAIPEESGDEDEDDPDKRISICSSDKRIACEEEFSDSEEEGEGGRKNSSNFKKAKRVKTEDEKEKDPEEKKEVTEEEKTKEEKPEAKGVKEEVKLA

IC50 (human recombinant HDAC1) [nM] | inhibition at 10 µM (hHDAC8) [%] | SMILES | IC50 (HDAC in HeLa cells) [nM] | HDAC inhibition in cells at 5 μM (in words) (HDAC in HeLa cells; 5 μM)
12.3 ± 1.6 | 22 | CCCC[C@H]1NC(=O)C[C@@H](/C=C/CCSC(C)=O)OC(=O)C[C@H](O)[C@@H]([C@@H](C)CC)NC(=O)[C@@H](C)NC1=O [compound 33] | 34 ± 2.2 | –
28 ± 2 | 21 | CCCC[C@H]1NC(=O)C[C@@H](/C=C/CCC(=O)NO)OC(=O)C[C@H](O)[C@@H]([C@@H](C)CC)NC(=O)[C@@H](C)NC1=O [compound 8] | – | no HDAC inhibition

SMILES | IC50 (human recombinant HDAC1) [nM] | inhibition at 10 µM (hHDAC8) [%] | IC50 (HDAC in HeLa cells) [nM] | HDAC inhibition in cells at 5 μM (in words) (HDAC in HeLa cells; 5 μM)
CCCC[C@H]1NC(=O)C[C@@H](/C=C/CCSC(C)=O)OC(=O)C[C@H](O[Si](C)(C)C(C)(C)C)[C@@H]([C@@H](C)CC)NC(=O)[C@@H](C)NC1=O [compound 32] | 18700 ± 8900 | 30 | 58600 ± 1300 | –
